Laboratory results reported in PubChem BioAssay (NCI).
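Exposure lasted 48 hours, with cells grown in 96-well plates and compounds tested at five concentrations. Here, GI50 denotes the concentration required for 50% inhibition of growth. TGI is the concentration that stops growth completely.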

Assays:
Experiment in all cases: NCI-60 cell line screen, 48 h
HOP-92 NSCLC = tested on: HOP-92 NSCLC
ACHN renal = tested on: ACHN renal
M14 melanoma = tested on: M14 melanoma
A498 renal = tested on: A498 renal
CAKI-1 renal = tested on: CAKI-1 renal
HCC-2998 colon = tested on: HCC-2998 colon
UO-31 renal = tested on: UO-31 renal
K-562 leukemia = tested on: K-562 leukemia
SN12C renal = tested on: SN12C renal
IGROV1 ovarian = tested on: IGROV1 ovarian
MOLT-4 leukemia = tested on: MOLT-4 leukemia
SR leukemia = tested on: SR leukemia
RPMI-8226 leukemia = tested on: RPMI-8226 leukemia
A549 NSCLC = tested on: A549 NSCLC
MDA-MB-468 breast = tested on: MDA-MB-468 breast
HCT-15 colon = tested on: HCT-15 colon
KM12 colon = tested on: KM12 colon
SW-620 colon = tested on: SW-620 colon
PC-3 prostate = tested on: PC-3 prostate
DU-145 prostate = tested on: DU-145 prostate
SK-MEL-28 melanoma = tested on: SK-MEL-28 melanoma
SF-268 CNS = tested on: SF-268 CNS
786-0 renal = tested on: 786-0 renal
COLO 205 colon = tested on: COLO 205 colon
HCT-116 colon = tested on: HCT-116 colon
MDA-MB-435 = tested on: MDA-MB-435
MALME-3M melanoma = tested on: MALME-3M melanoma
OVCAR-3 ovarian = tested on: OVCAR-3 ovarian
HOP-62 NSCLC = tested on: HOP-62 NSCLC
T-47D breast = tested on: T-47D breast
OVCAR-5 ovarian = tested on: OVCAR-5 ovarian
SNB-75 CNS = tested on: SNB-75 CNS
MCF7 breast = tested on: MCF7 breast
NCI-H460 lung = tested on: NCI-H460 lung
EKVX NSCLC = tested on: EKVX NSCLC
HT29 colon = tested on: HT29 colon
TK-10 renal = tested on: TK-10 renal
UACC-62 melanoma = tested on: UACC-62 melanoma
SK-MEL-5 melanoma = tested on: SK-MEL-5 melanoma
OVCAR-8 ovarian = tested on: OVCAR-8 ovarian
CCRF-CEM leukemia = tested on: CCRF-CEM leukemia
SK-OV-3 ovarian = tested on: SK-OV-3 ovarian
RXF 393 renal = tested on: RXF 393 renal
MDA-MB-231 breast = tested on: MDA-MB-231 breast
HS 578T breast = tested on: HS 578T breast
BT-549 breast = tested on: BT-549 breast
HL-60(TB) leukemia = tested on: HL-60(TB) leukemia
NCI/ADR-RES ovarian = tested on: NCI/ADR-RES ovarian
NCI-H23 lung = tested on: NCI-H23 lung
UACC-257 melanoma = tested on: UACC-257 melanoma
OVCAR-4 ovarian = tested on: OVCAR-4 ovarian
SK-MEL-2 melanoma = tested on: SK-MEL-2 melanoma
NCI-H226 lung = tested on: NCI-H226 lung
NCI-H522 lung = tested on: NCI-H522 lung
U251 CNS = tested on: U251 CNS
LOX IMVI melanoma = tested on: LOX IMVI melanoma
SNB-19 CNS = tested on: SNB-19 CNS
SF-295 CNS = tested on: SF-295 CNS
SF-539 CNS = tested on: SF-539 CNS

Work on O=C(c1ccc(O)cc1)C1[C@H](c2ccc(Cl)cc2)[C@@H](c2ccccc2)NC12C(=O)Nc1ccc(Br)cc12 (stereo partly drawn) yielded a GI50 (HOP-92 NSCLC) of 14.2 µM, a TGI (HOP-92 NSCLC) of 28.6 µM and a GI50 (ACHN renal) of 12.6 µM. For the same molecule, the TGI (ACHN renal) was 25.2 µM, the GI50 (M14 melanoma) was 12.8 µM and the TGI (M14 melanoma) was 25.5 µM. For the same molecule, the GI50 (A498 renal) was 13.8 µM, the TGI (A498 renal) was 27 µM and the GI50 (CAKI-1 renal) was 10.8 µM. The TGI (CAKI-1 renal) was 23.4 µM, the GI50 (HCC-2998 colon) was 14.1 µM and the TGI (HCC-2998 colon) was 27.3 µM. It also gave a GI50 (UO-31 renal) of 10.6 µM, a TGI (UO-31 renal) of 22.4 µM and a GI50 (K-562 leukemia) of 14.3 µM. The TGI (K-562 leukemia) was 43.5 µM, the GI50 (SN12C renal) was 14.7 µM and the TGI (SN12C renal) was 28.4 µM. It also gave a GI50 (IGROV1 ovarian) of 12.1 µM, a TGI (IGROV1 ovarian) of 24.8 µM and a GI50 (MOLT-4 leukemia) of 11.6 µM. The TGI (MOLT-4 leukemia) was 32.2 µM, the GI50 (SR leukemia) was 10.6 µM and the TGI (SR leukemia) was 26.2 µM. The GI50 (RPMI-8226 leukemia) was 23.6 µM, the TGI (RPMI-8226 leukemia) was 69.2 µM and the GI50 (A549 NSCLC) was 11.8 µM. The TGI (A549 NSCLC) was 25.9 µM, the GI50 (MDA-MB-468 breast) was 8.82 µM and the TGI (MDA-MB-468 breast) was 21.3 µM. It also gave a GI50 (HCT-15 colon) of 13.6 µM, a TGI (HCT-15 colon) of 26.8 µM and a GI50 (KM12 colon) of 13.4 µM. For the same molecule, the TGI (KM12 colon) was 29.5 µM, the GI50 (SW-620 colon) was 14.4 µM and the TGI (SW-620 colon) was 28.1 µM. The GI50 (PC-3 prostate) was 12.3 µM, the TGI (PC-3 prostate) was 25.9 µM and the GI50 (DU-145 prostate) was 16.6 µM. For the same molecule, the TGI (DU-145 prostate) was 31.6 µM, the GI50 (SK-MEL-28 melanoma) was 16.3 µM and the TGI (SK-MEL-28 melanoma) was 30 µM. The GI50 (SF-268 CNS) was 14.4 µM, the TGI (SF-268 CNS) was 31 µM and the GI50 (786-0 renal) was 1.64 µM. The TGI (786-0 renal) was 3 µM, the GI50 (COLO 205 colon) was 15.8 µM and the TGI (COLO 205 colon) was 30 µM. The GI50 (HCT-116 colon) was 12.6 µM, the TGI (HCT-116 colon) was 25.1 µM and the GI50 (MDA-MB-435) was 16.2 µM. It also gave a TGI (MDA-MB-435) of 31.9 µM, a GI50 (MALME-3M melanoma) of 15.1 µM and a TGI (MALME-3M melanoma) of 28.8 µM. The GI50 (OVCAR-3 ovarian) was 13.8 µM, the TGI (OVCAR-3 ovarian) was 28 µM and the GI50 (HOP-62 NSCLC) was 13.9 µM. The TGI (HOP-62 NSCLC) was 27.5 µM, the GI50 (T-47D breast) was 11.7 µM and the TGI (T-47D breast) was 24.1 µM. It also gave a GI50 (OVCAR-5 ovarian) of 13.7 µM, a TGI (OVCAR-5 ovarian) of 26.6 µM and a GI50 (SNB-75 CNS) of 10.8 µM. It also gave a TGI (SNB-75 CNS) of 26.2 µM, a GI50 (MCF7 breast) of 12.2 µM and a TGI (MCF7 breast) of 25.7 µM. It also gave a GI50 (NCI-H460 lung) of 14.7 µM, a TGI (NCI-H460 lung) of 28.8 µM and a GI50 (EKVX NSCLC) of 11 µM. For the same molecule, the TGI (EKVX NSCLC) was 23.2 µM, the GI50 (HT29 colon) was 14 µM and the TGI (HT29 colon) was 27.9 µM. For the same molecule, the GI50 (TK-10 renal) was 13.8 µM, the TGI (TK-10 renal) was 27 µM and the GI50 (UACC-62 melanoma) was 11.8 µM. The TGI (UACC-62 melanoma) was 24.1 µM, the GI50 (SK-MEL-5 melanoma) was 15.7 µM and the TGI (SK-MEL-5 melanoma) was 29.1 µM. It also gave a GI50 (OVCAR-8 ovarian) of 15.5 µM, a TGI (OVCAR-8 ovarian) of 30.7 µM and a GI50 (CCRF-CEM leukemia) of 18.9 µM. For the same molecule, the TGI (CCRF-CEM leukemia) was 45 µM, the GI50 (SK-OV-3 ovarian) was 14.9 µM and the TGI (SK-OV-3 ovarian) was 28.3 µM. For the same molecule, the GI50 (RXF 393 renal) was 13 µM, the TGI (RXF 393 renal) was 26.3 µM and the GI50 (MDA-MB-231 breast) was 13.1 µM. For the same molecule, the TGI (MDA-MB-231 breast) was 26 µM, the GI50 (HS 578T breast) was 15.2 µM and the TGI (HS 578T breast) was 38.2 µM. The GI50 (BT-549 breast) was 16.3 µM, the TGI (BT-549 breast) was 30 µM and the GI50 (HL-60(TB) leukemia) was 20.4 µM. It also gave a TGI (HL-60(TB) leukemia) of 46.5 µM, a GI50 (NCI/ADR-RES ovarian) of 16.6 µM and a TGI (NCI/ADR-RES ovarian) of 31.5 µM. It also gave a GI50 (NCI-H23 lung) of 15.1 µM, a TGI (NCI-H23 lung) of 29.2 µM and a GI50 (UACC-257 melanoma) of 14.8 µM. It also gave a TGI (UACC-257 melanoma) of 28.6 µM, a GI50 (OVCAR-4 ovarian) of 14.3 µM and a TGI (OVCAR-4 ovarian) of 28.1 µM. It also gave a GI50 (SK-MEL-2 melanoma) of 14.4 µM, a TGI (SK-MEL-2 melanoma) of 28.3 µM and a GI50 (NCI-H226 lung) of 13.6 µM. The TGI (NCI-H226 lung) was 28.9 µM, the GI50 (NCI-H522 lung) was 13.3 µM and the TGI (NCI-H522 lung) was 26.6 µM. It also gave a GI50 (U251 CNS) of 15 µM, a TGI (U251 CNS) of 29.6 µM and a GI50 (LOX IMVI melanoma) of 14 µM. The TGI (LOX IMVI melanoma) was 27 µM, the GI50 (SNB-19 CNS) was 14.6 µM and the TGI (SNB-19 CNS) was 27.7 µM. For the same molecule, the GI50 (SF-295 CNS) was 12.4 µM, the TGI (SF-295 CNS) was 25 µM and the GI50 (SF-539 CNS) was 14.7 µM. The TGI (SF-539 CNS) was 28 µM.
